Where a SMILES comes first, the peptide text is derived from it.

For one series, the system named is human tumor cells. Description: Cytotoxic activity screening of peptide library on human tumor cell lines, SRB method. It counts as cell-based. A general note: Sulforhodamine B stains cellular protein and so reports cell mass.
The subject of series [1] is Colo 205 (colon adenocarcinoma). Description: SRB cytotoxicity on Colo 205 cells. The series is classed as cell-based, human. The protocol: (§1) Negative control cells were cultured on a volume of vehicle equal to that of the experimental samples. An “x-y” curve (dose-response) was established with the percent of surviving cells, compared in respect to the negative control cells, and the following parameters were estimated: 50% growth inhibition (GI50); Total growth inhibition (TGI); and the lethal concentration 50 (LC50), that is the concentration causing the 50% of cell death (Boyd M R, Paull K D, and Rubinstein L R (1992) “Data display and analysis strategies for the NCI Disease Oriented In-Vitro Antitumor Drug Screen, in Cytotoxic Anticancer Drugs: Models and Concept for Drug Discovery and Development” (Baleriote F A, Corbett T H and Baker L H eds) pp 11-34, Kluwer Academia Publishers, Boston).
(§2) Were considered as cytotoxic peptides all those peptides being able of inhibiting 50% of the cellular proliferation, in a dose-dependent manner, and showing GI50 values below 100 μM, at least in one of the cell lines studied. The human tumor cell lines used were: HEp-2 (larynx carcinoma), A549 (lung epithelial adenocarcinoma), M14 (melanoma), Colo 205 (colon adenocarcinoma), Ls174T (colon adenocarcinoma), LnCAP (prostate carcinoma), PC-3 (prostate carcinoma) and H 125 (non-small cell lung adenocarcinoma). […]

A further series deals with HEp-2 (larynx carcinoma). In words: SRB cytotoxicity on HEp-2 cells. It counts as cell-based, human. The protocol:
as §1, §2

In series [2] the test system is A549 (lung epithelial adenocarcinoma). In words: SRB cytotoxicity on A549 cells. The series is classed as cell-based, human. The method, then:
as §1, §2

The test system of series [3] is Ls174T (colon adenocarcinoma). In words: SRB cytotoxicity on Ls174T cells. The series is classed as cell-based, human. The protocol: as §1, §2

On to `CC(C)C[C@H](NC(=O)[C@H](Cc1ccccc1)NC(=O)[C@H](CC(=O)O)NC(=O)[C@H](CCCNC(=N)N)NC(=O)CNC(=O)[C@@H](NC(=O)[C@H](CC(N)=O)NC(=O)[C@H](CO)NC(=O)[C@H](CC(N)=O)NC(=O)[C@H](Cc1ccccc1)NC(=O)CNC(=O)[C@H](Cc1ccc(O)cc1)NC(=O)[C@@H](NC(=O)[C@@H](NC(=O)[C@H](CC(=O)O)NC(=O)CN)[C@@H](C)O)C(C)C)[C@@H](C)O)C(=O)N[C@@H](CO)C(=O)N[C@H](C(=O)N[C@H](C(=O)N[C@@H](CO)C(N)=O)[C@@H](C)O)[C@@H](C)O` [Peptide N06P87] (H-GDTVYGFNSNTGRDFLSTTS-NH2), for which the “cytotoxic / biological activity in vitro on tumor cells” value in the series with human tumor cells (peptide library screening) is given as “active”. In the series on human tumor cells (tumor cells from diverse histological origins), the “change of cytotoxic activity by parenteral formulation buffers, pH and additives” value is recorded as “no increased on its cytotoxic activity”. Also, the GI50 (in series [1]; in the series with HEp-2 (larynx carcinoma); in series [2]; in series [3]) was less than 100 µM in each case.

In general, GI50 refers to the concentration giving 50% growth inhibition. The low end stands for greater sensitivity of the cells, the high end for lower sensitivity of the cells.

The record behind these values is patent US9375459B2, “Cyclic peptides with an anti-neoplasic and anti-angiogenic activity” (priority 2011, dated 2016).
